Measured values from patent EP0377642B1, “HERBICIDES FOR WEED CONTROL IN RICE” (E.I. DU PONT DE NEMOURS AND COMPANY, priority 1987, dated 1989).

Tests used:
Assay type in all cases: in vivo
FIMBRISTYLIS MILIACEA = test: Herbicidal efficacy alone and with 2,4-D in Thailand (Table 3); conditions: 6 weeks after application
From the text: (§1) Methyl 2-[[[[(4-methoxy-6-methyl-1,3,5-triazin-2-yl)amino]carbonyl]amino]sulfonyl]benzoate (Compound 1) and mixtures thereof with other compounds were applied as a spray (using a hand sprayer) to rice (either transplanted or direct seeded) in several rice growing areas in Southeast Asia and in the U.S. Tables 1-28 contain the results of these tests and clearly exemplify the utility of this invention. The details of each application are included in the appropriate table. [drawing 2]

MV = test: Herbicidal efficacy in relation to application timing in Indonesia (Table 5)
From the text: as §1

PS = test: as above
From the text: as §1

rice = test: as above
From the text: as §1

## COC(=O)c1ccccc1S(=O)(=O)NC(=O)Nc1nc(C)nc(OC)n1 [Compound 1, Methyl 2-[[[[(4-methoxy-6-methyl-1,3,5-triazin-2-yl)amino]carbonyl]amino]sulfonyl]benzoate]
FIMBRISTYLIS MILIACEA; applied 7 DAS, 3 GAI/HA
  FIMBRISTYLIS MILIACEA CONTROL: 53%
FIMBRISTYLIS MILIACEA; applied 7 DAS, 6 GAI/HA
  FIMBRISTYLIS MILIACEA CONTROL: 73%
FIMBRISTYLIS MILIACEA; applied 14 DAS, 3 GAI/HA
  FIMBRISTYLIS MILIACEA CONTROL: 20%
FIMBRISTYLIS MILIACEA; applied 14 DAS, 6 GAI/HA
  FIMBRISTYLIS MILIACEA CONTROL: 40%
FIMBRISTYLIS MILIACEA; applied 21 DAS, 3 GAI/HA
  FIMBRISTYLIS MILIACEA CONTROL: 0%
FIMBRISTYLIS MILIACEA; applied 21 DAS, 6 GAI/HA
  FIMBRISTYLIS MILIACEA CONTROL: 0%
FIMBRISTYLIS MILIACEA; applied 28 DAS, 3 GAI/HA
  FIMBRISTYLIS MILIACEA CONTROL: 0%
FIMBRISTYLIS MILIACEA; applied 28 DAS, 6 GAI/HA
  FIMBRISTYLIS MILIACEA CONTROL: 0%
MV; 3 WAT, 2 GAI/HA, evaluation 1
  % CONTROL MV: 80%
MV; 3 WAT, 2 GAI/HA, evaluation 2
  % CONTROL MV: 80%
MV; 3 WAT, 2 GAI/HA, evaluation 3
  % CONTROL MV: 100%
MV; 3 WAT, 3 GAI/HA, evaluation 1
  % CONTROL MV: 80%
MV; 3 WAT, 3 GAI/HA, evaluation 2
  % CONTROL MV: 100%
MV; 3 WAT, 3 GAI/HA, evaluation 3
  % CONTROL MV: 100%
MV; 3 WAT, 4 GAI/HA, evaluation 1
  % CONTROL MV: 100%
MV; 3 WAT, 4 GAI/HA, evaluation 2
  % CONTROL MV: 100%
MV; 3 WAT, 4 GAI/HA, evaluation 3
  % CONTROL MV: 100%
MV; 3 WAT, 6 GAI/HA, evaluation 1
  % CONTROL MV: 80%
MV; 3 WAT, 6 GAI/HA, evaluation 2
  % CONTROL MV: 100%
MV; 3 WAT, 6 GAI/HA, evaluation 3
  % CONTROL MV: 100%
MV; 3 WAT, 8 GAI/HA, evaluation 1
  % CONTROL MV: 100%
MV; 3 WAT, 8 GAI/HA, evaluation 2
  % CONTROL MV: 100%
MV; 3 WAT, 8 GAI/HA, evaluation 3
  % CONTROL MV: 100%
MV; 4 WAT, 2 GAI/HA, evaluation 1
  % CONTROL MV: 80%
MV; 4 WAT, 2 GAI/HA, evaluation 2
  % CONTROL MV: 100%
MV; 4 WAT, 2 GAI/HA, evaluation 3
  % CONTROL MV: 100%
MV; 4 WAT, 3 GAI/HA, evaluation 1
  % CONTROL MV: 80%
MV; 4 WAT, 3 GAI/HA, evaluation 2
  % CONTROL MV: 100%
MV; 4 WAT, 3 GAI/HA, evaluation 3
  % CONTROL MV: 100%
MV; 4 WAT, 4 GAI/HA, evaluation 1
  % CONTROL MV: 80%
MV; 4 WAT, 4 GAI/HA, evaluation 2
  % CONTROL MV: 100%
MV; 4 WAT, 4 GAI/HA, evaluation 3
  % CONTROL MV: 100%
MV; 4 WAT, 6 GAI/HA, evaluation 1
  % CONTROL MV: 80%
MV; 4 WAT, 6 GAI/HA, evaluation 2
  % CONTROL MV: 100%
MV; 4 WAT, 6 GAI/HA, evaluation 3
  % CONTROL MV: 100%
MV; 4 WAT, 8 GAI/HA, evaluation 1
  % CONTROL MV: 100%
MV; 4 WAT, 8 GAI/HA, evaluation 2
  % CONTROL MV: 100%
MV; 4 WAT, 8 GAI/HA, evaluation 3
  % CONTROL MV: 100%
MV; 5 WAT, 2 GAI/HA, evaluation 1
  % CONTROL MV: 80%
MV; 5 WAT, 2 GAI/HA, evaluation 2
  % CONTROL MV: 80%
MV; 5 WAT, 2 GAI/HA, evaluation 3
  % CONTROL MV: 80%
MV; 5 WAT, 3 GAI/HA, evaluation 1
  % CONTROL MV: 80%
MV; 5 WAT, 3 GAI/HA, evaluation 2
  % CONTROL MV: 100%
MV; 5 WAT, 3 GAI/HA, evaluation 3
  % CONTROL MV: 100%
MV; 5 WAT, 4 GAI/HA, evaluation 1
  % CONTROL MV: 80%
MV; 5 WAT, 4 GAI/HA, evaluation 2
  % CONTROL MV: 100%
MV; 5 WAT, 4 GAI/HA, evaluation 3
  % CONTROL MV: 100%
MV; 5 WAT, 6 GAI/HA, evaluation 1
  % CONTROL MV: 80%
MV; 5 WAT, 6 GAI/HA, evaluation 2
  % CONTROL MV: 100%
MV; 5 WAT, 6 GAI/HA, evaluation 3
  % CONTROL MV: 100%
MV; 5 WAT, 8 GAI/HA, evaluation 1
  % CONTROL MV: 100%
MV; 5 WAT, 8 GAI/HA, evaluation 2
  % CONTROL MV: 100%
MV; 5 WAT, 8 GAI/HA, evaluation 3
  % CONTROL MV: 100%
PS; 3 WAT, 2 GAI/HA, evaluation 1
  % CONTROL PS: 0%
PS; 3 WAT, 2 GAI/HA, evaluation 2
  % CONTROL PS: 0%
PS; 3 WAT, 2 GAI/HA, evaluation 3
  % CONTROL PS: 0%
PS; 3 WAT, 3 GAI/HA, evaluation 1
  % CONTROL PS: 0%
PS; 3 WAT, 3 GAI/HA, evaluation 2
  % CONTROL PS: 0%
PS; 3 WAT, 3 GAI/HA, evaluation 3
  % CONTROL PS: 0%
PS; 3 WAT, 4 GAI/HA, evaluation 1
  % CONTROL PS: 0%
PS; 3 WAT, 4 GAI/HA, evaluation 2
  % CONTROL PS: 0%
PS; 3 WAT, 4 GAI/HA, evaluation 3
  % CONTROL PS: 0%
PS; 3 WAT, 6 GAI/HA, evaluation 1
  % CONTROL PS: 0%
PS; 3 WAT, 6 GAI/HA, evaluation 2
  % CONTROL PS: 0%
PS; 3 WAT, 6 GAI/HA, evaluation 3
  % CONTROL PS: 0%
PS; 3 WAT, 8 GAI/HA, evaluation 1
  % CONTROL PS: 0%
PS; 3 WAT, 8 GAI/HA, evaluation 2
  % CONTROL PS: 0%
PS; 3 WAT, 8 GAI/HA, evaluation 3
  % CONTROL PS: 0%
PS; 4 WAT, 2 GAI/HA, evaluation 1
  % CONTROL PS: 0%
PS; 4 WAT, 2 GAI/HA, evaluation 2
  % CONTROL PS: 0%
PS; 4 WAT, 2 GAI/HA, evaluation 3
  % CONTROL PS: 0%
PS; 4 WAT, 3 GAI/HA, evaluation 1
  % CONTROL PS: 0%
PS; 4 WAT, 3 GAI/HA, evaluation 2
  % CONTROL PS: 0%
PS; 4 WAT, 3 GAI/HA, evaluation 3
  % CONTROL PS: 0%
PS; 4 WAT, 4 GAI/HA, evaluation 1
  % CONTROL PS: 0%
PS; 4 WAT, 4 GAI/HA, evaluation 2
  % CONTROL PS: 0%
PS; 4 WAT, 4 GAI/HA, evaluation 3
  % CONTROL PS: 0%
PS; 4 WAT, 6 GAI/HA, evaluation 1
  % CONTROL PS: 0%
PS; 4 WAT, 6 GAI/HA, evaluation 2
  % CONTROL PS: 0%
PS; 4 WAT, 6 GAI/HA, evaluation 3
  % CONTROL PS: 0%
PS; 4 WAT, 8 GAI/HA, evaluation 1
  % CONTROL PS: 0%
PS; 4 WAT, 8 GAI/HA, evaluation 2
  % CONTROL PS: 0%
PS; 4 WAT, 8 GAI/HA, evaluation 3
  % CONTROL PS: 0%
PS; 5 WAT, 2 GAI/HA, evaluation 1
  % CONTROL PS: 0%
PS; 5 WAT, 2 GAI/HA, evaluation 2
  % CONTROL PS: 0%
PS; 5 WAT, 2 GAI/HA, evaluation 3
  % CONTROL PS: 0%
PS; 5 WAT, 3 GAI/HA, evaluation 1
  % CONTROL PS: 0%
PS; 5 WAT, 3 GAI/HA, evaluation 2
  % CONTROL PS: 0%
PS; 5 WAT, 3 GAI/HA, evaluation 3
  % CONTROL PS: 0%
PS; 5 WAT, 4 GAI/HA, evaluation 1
  % CONTROL PS: 0%
PS; 5 WAT, 4 GAI/HA, evaluation 2
  % CONTROL PS: 0%
PS; 5 WAT, 4 GAI/HA, evaluation 3
  % CONTROL PS: 0%
PS; 5 WAT, 6 GAI/HA, evaluation 1
  % CONTROL PS: 0%
PS; 5 WAT, 6 GAI/HA, evaluation 2
  % CONTROL PS: 0%
PS; 5 WAT, 6 GAI/HA, evaluation 3
  % CONTROL PS: 0%
PS; 5 WAT, 8 GAI/HA, evaluation 1
  % CONTROL PS: 0%
PS; 5 WAT, 8 GAI/HA, evaluation 2
  % CONTROL PS: 0%
PS; 5 WAT, 8 GAI/HA, evaluation 3
  % CONTROL PS: 0%
rice; 3 WAT, 2 GAI/HA, evaluation 1
  % CONTROL RICE: 0%
rice; 3 WAT, 2 GAI/HA, evaluation 2
  % CONTROL RICE: 0%
rice; 3 WAT, 2 GAI/HA, evaluation 3
  % CONTROL RICE: 0%
rice; 3 WAT, 3 GAI/HA, evaluation 1
  % CONTROL RICE: 0%
rice; 3 WAT, 3 GAI/HA, evaluation 2
  % CONTROL RICE: 0%
rice; 3 WAT, 3 GAI/HA, evaluation 3
  % CONTROL RICE: 0%
rice; 3 WAT, 4 GAI/HA, evaluation 1
  % CONTROL RICE: 0%
rice; 3 WAT, 4 GAI/HA, evaluation 2
  % CONTROL RICE: 0%
rice; 3 WAT, 4 GAI/HA, evaluation 3
  % CONTROL RICE: 0%
rice; 3 WAT, 6 GAI/HA, evaluation 1
  % CONTROL RICE: 0%
rice; 3 WAT, 6 GAI/HA, evaluation 2
  % CONTROL RICE: 0%
rice; 3 WAT, 6 GAI/HA, evaluation 3
  % CONTROL RICE: 0%
rice; 3 WAT, 8 GAI/HA, evaluation 1
  % CONTROL RICE: 0%
rice; 3 WAT, 8 GAI/HA, evaluation 2
  % CONTROL RICE: 0%
rice; 3 WAT, 8 GAI/HA, evaluation 3
  % CONTROL RICE: 0%
rice; 4 WAT, 2 GAI/HA, evaluation 1
  % CONTROL RICE: 0%
rice; 4 WAT, 2 GAI/HA, evaluation 2
  % CONTROL RICE: 0%
rice; 4 WAT, 2 GAI/HA, evaluation 3
  % CONTROL RICE: 0%
rice; 4 WAT, 3 GAI/HA, evaluation 1
  % CONTROL RICE: 0%
rice; 4 WAT, 3 GAI/HA, evaluation 2
  % CONTROL RICE: 10%
rice; 4 WAT, 3 GAI/HA, evaluation 3
  % CONTROL RICE: 0%
rice; 4 WAT, 4 GAI/HA, evaluation 1
  % CONTROL RICE: 20%
rice; 4 WAT, 4 GAI/HA, evaluation 2
  % CONTROL RICE: 20%
rice; 4 WAT, 4 GAI/HA, evaluation 3
  % CONTROL RICE: 0%
rice; 4 WAT, 6 GAI/HA, evaluation 1
  % CONTROL RICE: 20%
rice; 4 WAT, 6 GAI/HA, evaluation 2
  % CONTROL RICE: 20%
rice; 4 WAT, 6 GAI/HA, evaluation 3
  % CONTROL RICE: 0%
rice; 4 WAT, 8 GAI/HA, evaluation 1
  % CONTROL RICE: 20%
rice; 4 WAT, 8 GAI/HA, evaluation 2
  % CONTROL RICE: 20%
rice; 4 WAT, 8 GAI/HA, evaluation 3
  % CONTROL RICE: 0%
rice; 5 WAT, 2 GAI/HA, evaluation 1
  % CONTROL RICE: 10%
rice; 5 WAT, 2 GAI/HA, evaluation 2
  % CONTROL RICE: 0%
rice; 5 WAT, 2 GAI/HA, evaluation 3
  % CONTROL RICE: 0%
rice; 5 WAT, 3 GAI/HA, evaluation 1
  % CONTROL RICE: 10%
rice; 5 WAT, 3 GAI/HA, evaluation 2
  % CONTROL RICE: 0%
rice; 5 WAT, 3 GAI/HA, evaluation 3
  % CONTROL RICE: 0%
rice; 5 WAT, 4 GAI/HA, evaluation 1
  % CONTROL RICE: 30%
rice; 5 WAT, 4 GAI/HA, evaluation 2
  % CONTROL RICE: 0%
rice; 5 WAT, 4 GAI/HA, evaluation 3
  % CONTROL RICE: 0%
rice; 5 WAT, 6 GAI/HA, evaluation 1
  % CONTROL RICE: 0%
rice; 5 WAT, 6 GAI/HA, evaluation 2
  % CONTROL RICE: 0%
rice; 5 WAT, 6 GAI/HA, evaluation 3
  % CONTROL RICE: 0%
rice; 5 WAT, 8 GAI/HA, evaluation 1
  % CONTROL RICE: 30%
rice; 5 WAT, 8 GAI/HA, evaluation 2
  % CONTROL RICE: 10%
rice; 5 WAT, 8 GAI/HA, evaluation 3
  % CONTROL RICE: 0%
